{"source": "patent US8148391B2", "about": "(Cephalon, Inc., priority 2006, dated 2012)", "key": {"[1]": {"target": "T1, baculovirus-expressed ALK (Homo sapiens, UniProt Q9UM73)", "T1 construct": "host or cells: baculovirus expression system", "T1 sequence (Q9UM73 19-1620)": "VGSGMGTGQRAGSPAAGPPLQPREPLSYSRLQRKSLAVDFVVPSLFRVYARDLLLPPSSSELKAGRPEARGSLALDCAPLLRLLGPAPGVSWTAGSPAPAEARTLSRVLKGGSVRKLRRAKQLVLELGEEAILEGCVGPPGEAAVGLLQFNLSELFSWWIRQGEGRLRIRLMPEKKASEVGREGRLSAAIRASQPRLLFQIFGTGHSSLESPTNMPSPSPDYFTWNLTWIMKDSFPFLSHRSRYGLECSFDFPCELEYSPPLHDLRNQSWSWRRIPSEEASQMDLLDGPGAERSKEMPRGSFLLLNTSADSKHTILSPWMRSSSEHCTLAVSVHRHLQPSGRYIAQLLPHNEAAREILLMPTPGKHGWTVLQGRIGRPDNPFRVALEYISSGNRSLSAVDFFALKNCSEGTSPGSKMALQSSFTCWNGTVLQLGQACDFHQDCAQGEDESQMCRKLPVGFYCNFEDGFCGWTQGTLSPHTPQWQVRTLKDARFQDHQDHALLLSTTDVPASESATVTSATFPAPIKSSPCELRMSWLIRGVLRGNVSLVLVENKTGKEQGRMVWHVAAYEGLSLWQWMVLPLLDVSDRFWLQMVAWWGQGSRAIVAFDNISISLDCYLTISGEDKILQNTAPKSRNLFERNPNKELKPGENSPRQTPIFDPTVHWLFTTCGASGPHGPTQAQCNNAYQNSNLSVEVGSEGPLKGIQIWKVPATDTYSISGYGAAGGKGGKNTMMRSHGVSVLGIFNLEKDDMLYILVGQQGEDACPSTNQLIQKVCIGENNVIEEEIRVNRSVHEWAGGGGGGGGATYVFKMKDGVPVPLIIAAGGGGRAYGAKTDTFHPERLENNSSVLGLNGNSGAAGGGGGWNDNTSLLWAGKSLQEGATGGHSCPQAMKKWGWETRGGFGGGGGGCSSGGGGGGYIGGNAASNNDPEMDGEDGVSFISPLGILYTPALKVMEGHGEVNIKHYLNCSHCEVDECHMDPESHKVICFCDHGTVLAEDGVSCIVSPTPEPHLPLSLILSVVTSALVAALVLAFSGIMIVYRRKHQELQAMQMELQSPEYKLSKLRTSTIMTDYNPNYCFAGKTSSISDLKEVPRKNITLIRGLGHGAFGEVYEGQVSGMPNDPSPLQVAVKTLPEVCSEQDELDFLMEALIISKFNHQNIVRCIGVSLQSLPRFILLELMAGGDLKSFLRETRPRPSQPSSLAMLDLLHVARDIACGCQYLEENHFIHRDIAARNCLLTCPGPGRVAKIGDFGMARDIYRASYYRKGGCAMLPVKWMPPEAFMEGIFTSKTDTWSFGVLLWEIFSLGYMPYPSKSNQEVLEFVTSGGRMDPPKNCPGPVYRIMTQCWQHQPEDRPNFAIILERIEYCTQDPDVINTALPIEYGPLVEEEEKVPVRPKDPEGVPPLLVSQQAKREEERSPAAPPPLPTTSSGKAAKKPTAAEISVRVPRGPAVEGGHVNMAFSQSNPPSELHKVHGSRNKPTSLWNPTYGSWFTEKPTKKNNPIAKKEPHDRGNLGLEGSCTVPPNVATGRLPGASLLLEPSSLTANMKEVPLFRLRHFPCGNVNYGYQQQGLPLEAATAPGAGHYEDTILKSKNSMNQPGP", "test": "ALK Kinase Assay (ELISA-type, time-resolved fluorescence)", "type": "biochemical", "conditions": "1 μM ATP (Km level)", "method_in_brief": "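Wells were coated with phospholipase C-γ at 10 μg/mL in Tris-buffered saline. Adding 30 ng/ml enzyme started the reaction, which ran at 37° C for 15 minutes before Eu-N1 PT66 antibody detection. Percent inhibition versus log10 concentration gave IC50 by variable-slope fit.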"}, "[2]": {"target": "T2, c-Met (cytoplasmic domain) (Homo sapiens, UniProt P08581)", "T2 construct": "10 ng/mL c-Met (cytoplasmic domain, Invitrogen Corporation #PV3143); purchased Invitrogen Corporation PV3143", "T2 sequence (P08581 956-1390 limits assumed)": "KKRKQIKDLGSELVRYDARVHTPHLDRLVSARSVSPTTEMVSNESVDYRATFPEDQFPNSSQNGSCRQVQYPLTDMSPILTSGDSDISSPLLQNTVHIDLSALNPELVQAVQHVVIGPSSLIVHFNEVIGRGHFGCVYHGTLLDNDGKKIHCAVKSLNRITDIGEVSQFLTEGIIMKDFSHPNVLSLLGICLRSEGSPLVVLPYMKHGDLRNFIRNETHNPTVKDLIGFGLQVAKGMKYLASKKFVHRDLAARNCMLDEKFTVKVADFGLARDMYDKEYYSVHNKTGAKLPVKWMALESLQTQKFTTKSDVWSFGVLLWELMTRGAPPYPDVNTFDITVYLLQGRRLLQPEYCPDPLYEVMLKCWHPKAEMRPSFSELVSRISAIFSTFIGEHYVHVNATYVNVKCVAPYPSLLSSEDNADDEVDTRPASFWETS", "test": "c-Met Kinase Assay (same methods as for ALK, with modifications)", "type": "biochemical", "conditions": "1 μM ATP (Km level)", "method_in_brief": "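IC50 values were fitted by variable-slope sigmoidal regression of percent inhibition against log compound concentration. Phosphorylation was read with Eu-N1 PT66 antibody after a 15 min, 37 °C reaction. The reaction was initiated with 10 ng/mL c-Met cytoplasmic domain on wells coated with 10 μg/mL PLC-γ in TBS.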"}, "[3]": {"conditions": "read-out: ALK Activity (ALK Kinase Inhibition, IC50)"}, "[4]": {"conditions": "read-out: cMet Activity (c-Met Kinase Inhibition, IC50)"}, "[5]": {"conditions": "30 ng/ml ALK, 37° C., 15 minutes, read-out: ALK Activity (ALK kinase inhibition, IC50 class)"}, "[6]": {"conditions": "10 ng/mL c-Met, read-out: cMet Activity (c-Met kinase inhibition, IC50 class)"}, "[7]": {"conditions": "ALK kinase inhibition, read-out: ALK Activity"}, "[8]": {"conditions": "c-Met kinase inhibition, read-out: cMet Activity"}}, "note": "Like-named read-outs stand apart in the source and are kept apart here."}
{"substance": "(1S,2S,3R,4R)-3-{5-Chloro-2-[6-(2-hydroxy-ethylamino)-1-methoxy-6,7,8,9-tetrahydro-5H-benzocyclohepten-2-ylamino]-pyrimidin-4-ylamino}-bicyclo[2.2.1]hept-5-ene-2-carboxylic acid amide [Example 960]", "values": [{"measurement": "IC50", "setting": "[1]; [3]", "result": "< 0.1", "unit": "µM"}, {"measurement": "IC50", "setting": "[2]; [4]", "result": "> 10", "unit": "µM"}]}
{"substance": "(1S,2S,3R,4R)-3-{5-Chloro-2-[7-(2,2-difluoro-ethylamino)-6,7,8,9-tetrahydro-5H-benzocyclohepten-2-ylamino]-pyrimidin-4-ylamino}-bicyclo[2.2.1]hept-5-ene-2-carboxylic acid amide [Example 677]", "values": [{"measurement": "IC50", "setting": "[1]; [3]", "result": "< 0.1", "unit": "µM"}, {"measurement": "IC50", "setting": "[2]; [4]", "result": "> 10", "unit": "µM"}]}
{"substance": "(1S,2S,3R,4R)-3-{5-Chloro-2-[7-(4-methyl-piperazin-1-yl)-6,7,8,9-tetrahydro-5H-benzocyclohepten-2-ylamino]-pyrimidin-4-ylamino}-bicyclo[2.2.1]hept-5-ene-2-carboxylic acid amide [Example 893]", "values": [{"measurement": "IC50", "setting": "[1]; [3]", "result": "< 0.1", "unit": "µM"}, {"measurement": "IC50", "setting": "[2]; [4]", "result": "0.1 to 1", "unit": "µM"}]}
{"substance": "(1S,2S,4R)-3-{5-Chloro-2-[3-(2-dimethylamino-acetylamino)-1-ethyl-6-methoxy-2-oxo-2,3,4,5-tetrahydro-1H-benzo[b]azepin-7-ylamino]-pyrimidin-4-ylamino}-bicyclo[2.2.1]hept-5-ene-2-carboxylic acid amide [Example 1353]", "values": [{"measurement": "IC50", "setting": "[1]; [5]", "result": "< 0.1", "unit": "µM"}, {"measurement": "IC50", "setting": "[2]; [6]", "result": "> 10", "unit": "µM"}]}
{"substance": "N-(2-{5-Chloro-2-[3-(2-methoxy-ethyl)-2,3,4,5-tetrahydro-1H-benzo[d]azepin-7-ylamino]-pyrimidin-4-ylamino}-phenyl)-methanesulfonamide [Example 37]", "values": [{"measurement": "IC50", "setting": "[1]; [7]", "result": "< 0.1", "unit": "µM"}, {"measurement": "IC50", "setting": "[2]; [8]", "result": "1 to 10", "unit": "µM"}]}
{"substance": "N-(2-{5-Chloro-2-[3-methyl-5-oxo-1-(2,2,2-trifluoro-acetyl)-2,3,4,5-tetrahydro-1H-benzo[e][1,4]diazepin-6-ylamino]-pyrimidin-4-ylamino}-phenyl)-methanesulfonamide and N-(2-{5-Chloro-2-[2-methyl-5-oxo-1-(2,2,2-trifluoro-acetyl)-2,3,4,5-tetrahydro-1H-benzo[e][1,4]diazepin-6-ylamino]-pyrimidin-4-ylamino}-phenyl)-methanesulfonamide (Mixture of regioisomers) [Example 230]", "values": [{"measurement": "IC50", "setting": "[1]; [7]", "result": "< 0.1", "unit": "µM"}, {"measurement": "IC50", "setting": "[2]; [8]", "result": "1 to 10", "unit": "µM"}]}
{"substance": "N-((1R,2R)-2-{5-Chloro-2-[7-(2,2,2-trifluoro-ethylamino)-6,7,8,9-tetrahydro-5H-benzocyclohepten-2-ylamino]-pyrimidin-4-ylamino}-cyclohexyl)-methanesulfonamide [Example 676]", "values": [{"measurement": "IC50", "setting": "[1]; [3]", "result": "< 0.1", "unit": "µM"}, {"measurement": "IC50", "setting": "[2]; [4]", "result": "> 10", "unit": "µM"}]}
{"substance": "N-((1R,2R)-2-{5-Chloro-2-[7-(2,2,2-trifluoro-ethylamino)-6,7,8,9-tetrahydro-5H-benzocyclohepten-2-ylamino]-pyrimidin-4-ylamino}-cyclohexyl)-methanesulfonamide [Example 687]", "values": [{"measurement": "IC50", "setting": "[1]; [3]", "result": "< 0.1", "unit": "µM"}, {"measurement": "IC50", "setting": "[2]; [4]", "result": "> 10", "unit": "µM"}]}
{"substance": "N-((1R,2R)-2-{5-Chloro-2-[7-(2,2,2-trifluoro-ethylamino)-6,7,8,9-tetrahydro-5H-benzocyclohepten-2-ylamino]-pyrimidin-4-ylamino}-cyclohexyl)-methanesulfonamide [Example 688]", "values": [{"measurement": "IC50", "setting": "[1]; [3]", "result": "0.1 to 1", "unit": "µM"}, {"measurement": "IC50", "setting": "[2]; [4]", "result": "> 10", "unit": "µM"}]}
{"substance": "N-((1R,2R)-2-{5-Chloro-2-[7-(2,2-difluoro-ethylamino)-6,7,8,9-tetrahydro-5H-benzocyclohepten-2-ylamino]-pyrimidin-4-ylamino}-cyclohexyl)-methanesulfonamide [Example 675]", "values": [{"measurement": "IC50", "setting": "[1]; [3]", "result": "< 0.1", "unit": "µM"}, {"measurement": "IC50", "setting": "[2]; [4]", "result": "> 10", "unit": "µM"}]}
{"substance": "N-((1R,2R)-2-{5-Chloro-2-[(1R,8S)-10-(2,2,2-trifluoro-acetyl)-10-aza-tricyclo[6.3.2.0*2,7*]trideca-2,4,6-trien-4-ylamino]-pyrimidin-4-ylamino}-cyclohexyl)-methanesulfonamide and N-((1R,2R)-2-{5-Chloro-2-[(1S,8R)-10-(2,2,2-trifluoro-acetyl)-10-aza-tricyclo[6.3.2.0*2,7*]trideca-2,4,6-trien-4-ylamino]-pyrimidin-4-ylamino}-cyclohexyl)-methanesulfonamide [Example 345]", "values": [{"measurement": "IC50", "setting": "[1]; [7]", "result": "< 0.1", "unit": "µM"}, {"measurement": "IC50", "setting": "[2]; [8]", "result": "< 0.1", "unit": "µM"}]}
{"substance": "N-{(1R,2R)-2-[2-(12-sec-Butyl-12-aza-tricyclo[7.2.1.0*2,7*]dodeca-2(7),3,5-trien-4-ylamino)-5-chloro-pyrimidin-4-ylamino]-cyclohexyl}-methanesulfonamide [Example 85]", "values": [{"measurement": "IC50", "setting": "[1]; [7]", "result": "< 0.1", "unit": "µM"}, {"measurement": "IC50", "setting": "[2]; [8]", "result": "0.1 to 1", "unit": "µM"}]}
{"substance": "{2-[2-(1-Acetyl-4-oxo-1,2,3,4,5,6-hexahydro-benzo[b][1,5]diazocin-8-ylamino)-5-chloro-pyrimidin-4-ylamino]-3-methyl-phenoxy}-acetonitrile [Example 1247]", "values": [{"measurement": "IC50", "setting": "[1]; [5]", "result": "< 0.1", "unit": "µM"}, {"measurement": "IC50", "setting": "[2]; [6]", "result": "0.1 to 1", "unit": "µM"}]}
